Organism: Rattus norvegicus
Assay: Open TG-GATES - Regimen: Daily Repeat
Type: toxicity, organism-based, Sprague-Dawley
Parameters: regimen Daily Repeat, gender Male, age 6 weeks
Settings: in vivo, po, route gavage; for APTT / Bas / Eos / Fbg / Hb / Ht / Lym / MCH / MCHC / MCV / Mono / Neu / PT / Plat / RBC / Ret / WBC: tissue Blood; for A/G / ALP / ALT / AST / BUN / CRE / Ca / Cl / DBIL / GLC / IP / K / LDH / Na / PL / RALB / TBIL / TC / TG / TP / gamma-GTP: tissue Plasma
[1] = 0 mg/kg, 72 h, dose level Control, time 3 day
[2] = 0 mg/kg, […], dose level Control, time 7 day
[3] = 0 mg/kg, […], dose level Control, time 14 day
[4] = 0 mg/kg, […], dose level Control, time 28 day
[5] = 10 mg/kg, 72 h, dose level Low, time 3 day
[6] = 10 mg/kg, […], dose level Low, time 7 day
[7] = 10 mg/kg, […], dose level Low, time 14 day
[8] = 10 mg/kg, […], dose level Low, time 28 day

Structure (SMILES): Cn1cc[nH]c1=S [METHIMAZOLE]
- TERMINAL_BW [1]: 217.3 g
- APTT [1]: 21.2 s
- Bas [1]: 0%
- Eos [1]: 1%
- Fbg [1]: 310.8 mg/dL
- Hb [1]: 13.8 g/dL
- Ht [1]: 38.2%
- Lym [1]: 84.8%
- MCH [1]: 22.7 pg
- MCHC [1]: 36.1%
- MCV [1]: 62.8 fL
- Mono [1]: 1.6%
- Neu [1]: 11.8%
- PT [1]: 16.2 s
- Plat [1]: 126.3 x10_4/uL
- RBC [1]: 609 x10_4/ul
- Ret [1]: 6.7%
- WBC [1]: 107.5 x10_2/uL
- A/G [1]: 1.3
- ALP [1]: 1736 IU/L
- ALT [1]: 41.4 IU/L
- AST [1]: 68 IU/L
- BUN [1]: 17 mg/dL
- CRE [1]: 0.1 mg/dL
- Ca [1]: 10.8 mg/dL
- Cl [1]: 105.8 meq/L
- DBIL [1]: 0.002 mg/dL
- GLC [1]: 190.8 mg/dL
- IP [1]: 6.8 mg/dL
- K [1]: 4.1 meq/L
- LDH [1]: 187.8 IU/L
- Na [1]: 141.8 meq/L
- PL [1]: 161 mg/dL
- RALB [1]: 3.2 g/dL
- TBIL [1]: 0.014 mg/dL
- TC [1]: 89.4 mg/dL
- TG [1]: 93.8 mg/dL
- TP [1]: 5.7 g/dL
- gamma-GTP [1]: 1.2 IU/L
- TERMINAL_BW [2]: 252.2 g
- TERMINAL_BW [3]: 307.5 g
- TERMINAL_BW [4]: 373.3 g
- APTT [2]: 20.9 s
- Bas [2]: 0%
- Eos [2]: 0.8%
- Fbg [2]: 321.4 mg/dL
- Hb [2]: 14.2 g/dL
- Ht [2]: 38.9%
- Lym [2]: 80.2%
- MCH [2]: 22.3 pg
- MCHC [2]: 36.5%
- MCV [2]: 60.9 fL
- Mono [2]: 2.6%
- Neu [2]: 15.6%
- PT [2]: 15.9 s
- Plat [2]: 115.9 x10_4/uL
- RBC [2]: 638 x10_4/ul
- Ret [2]: 5.8%
- WBC [2]: 112.3 x10_2/uL
- APTT [3]: 22.2 s
- Bas [3]: 0%
- Eos [3]: 0.6%
- Fbg [3]: 331.8 mg/dL
- Hb [3]: 13.7 g/dL
- Ht [3]: 39.4%
- Lym [3]: 80.6%
- MCH [3]: 20.5 pg
- MCHC [3]: 34.9%
- MCV [3]: 58.7 fL
- Mono [3]: 1.8%
- Neu [3]: 15.8%
- PT [3]: 16.3 s
- Plat [3]: 117.4 x10_4/uL
- RBC [3]: 672.6 x10_4/ul
- Ret [3]: 4.9%
- WBC [3]: 112.2 x10_2/uL
- APTT [4]: 22.6 s
- Bas [4]: 0%
- Eos [4]: 1%
- Fbg [4]: 316.6 mg/dL
- Hb [4]: 15.2 g/dL
- Ht [4]: 42.9%
- Lym [4]: 82.4%
- MCH [4]: 19.3 pg
- MCHC [4]: 35.3%
- MCV [4]: 54.7 fL
- Mono [4]: 2.2%
- Neu [4]: 13.2%
- PT [4]: 16.4 s
- Plat [4]: 97.4 x10_4/uL
- RBC [4]: 785.4 x10_4/ul
- Ret [4]: 2.6%
- WBC [4]: 113.4 x10_2/uL
- A/G [2]: 1.2
- ALP [2]: 1790.2 IU/L
- ALT [2]: 39 IU/L
- AST [2]: 75.8 IU/L
- BUN [2]: 17.2 mg/dL
- CRE [2]: 0.2 mg/dL
- Ca [2]: 10.6 mg/dL
- Cl [2]: 107 meq/L
- DBIL [2]: 0 mg/dL
- GLC [2]: 195.4 mg/dL
- IP [2]: 7.5 mg/dL
- K [2]: 4.1 meq/L
- LDH [2]: 290.8 IU/L
- Na [2]: 142.2 meq/L
- PL [2]: 163.4 mg/dL
- RALB [2]: 3 g/dL
- TBIL [2]: 0.002 mg/dL
- TC [2]: 84.8 mg/dL
- TG [2]: 126 mg/dL
- TP [2]: 5.5 g/dL
- gamma-GTP [2]: 1 IU/L
- A/G [3]: 1.1
- ALP [3]: 1783.8 IU/L
- ALT [3]: 42.8 IU/L
- AST [3]: 71 IU/L
- BUN [3]: 18.2 mg/dL
- CRE [3]: 0.2 mg/dL
- Ca [3]: 10.6 mg/dL
- Cl [3]: 106 meq/L
- DBIL [3]: 0 mg/dL
- GLC [3]: 182 mg/dL
- IP [3]: 7 mg/dL
- K [3]: 4.3 meq/L
- LDH [3]: 198.6 IU/L
- Na [3]: 142.2 meq/L
- PL [3]: 158.6 mg/dL
- RALB [3]: 3 g/dL
- TBIL [3]: 0.014 mg/dL
- TC [3]: 75.4 mg/dL
- TG [3]: 150.2 mg/dL
- TP [3]: 5.8 g/dL
- gamma-GTP [3]: 1.6 IU/L
- A/G [4]: 1.1
- ALP [4]: 1110.8 IU/L
- ALT [4]: 40.4 IU/L
- AST [4]: 65.8 IU/L
- BUN [4]: 18.4 mg/dL
- CRE [4]: 0.2 mg/dL
- Ca [4]: 10.5 mg/dL
- Cl [4]: 105.4 meq/L
- DBIL [4]: 0.002 mg/dL
- GLC [4]: 198.8 mg/dL
- IP [4]: 6.3 mg/dL
- K [4]: 4.4 meq/L
- LDH [4]: 191.8 IU/L
- Na [4]: 142.4 meq/L
- PL [4]: 149.2 mg/dL
- RALB [4]: 3.2 g/dL
- TBIL [4]: 0.002 mg/dL
- TC [4]: 65.8 mg/dL
- TG [4]: 168 mg/dL
- TP [4]: 6 g/dL
- gamma-GTP [4]: 1 IU/L
- TERMINAL_BW [5]: 223.1 g
- APTT [5]: 19.4 s
- Bas [5]: 0%
- Eos [5]: 1.2%
- Fbg [5]: 325.2 mg/dL
- Hb [5]: 13.7 g/dL
- Ht [5]: 38.6%
- Lym [5]: 81.8%
- MCH [5]: 21.9 pg
- MCHC [5]: 35.6%
- MCV [5]: 61.5 fL
- Mono [5]: 2.6%
- Neu [5]: 13.6%
- PT [5]: 16.4 s
- Plat [5]: 128.5 x10_4/uL
- RBC [5]: 628.2 x10_4/ul
- Ret [5]: 6.5%
- WBC [5]: 95 x10_2/uL
- A/G [5]: 1.1
- ALP [5]: 1789.2 IU/L
- ALT [5]: 40.8 IU/L
- AST [5]: 65.6 IU/L
- BUN [5]: 16.8 mg/dL
- CRE [5]: 0.1 mg/dL
- Ca [5]: 11.1 mg/dL
- Cl [5]: 106.8 meq/L
- DBIL [5]: 0 mg/dL
- GLC [5]: 184 mg/dL
- IP [5]: 6.3 mg/dL
- K [5]: 4.2 meq/L
- LDH [5]: 170 IU/L
- Na [5]: 141.8 meq/L
- PL [5]: 183 mg/dL
- RALB [5]: 3.1 g/dL
- TBIL [5]: 0.004 mg/dL
- TC [5]: 101.6 mg/dL
- TG [5]: 128.6 mg/dL
- TP [5]: 5.8 g/dL
- gamma-GTP [5]: 1.2 IU/L
- TERMINAL_BW [6]: 253.1 g
- TERMINAL_BW [7]: 300.3 g
- TERMINAL_BW [8]: 356.4 g
- APTT [6]: 20.3 s
- Bas [6]: 0%
- Eos [6]: 1%
- Fbg [6]: 333 mg/dL
- Hb [6]: 13.9 g/dL
- Ht [6]: 38.1%
- Lym [6]: 80%
- MCH [6]: 22.3 pg
- MCHC [6]: 36.4%
- MCV [6]: 61.3 fL
- Mono [6]: 2.6%
- Neu [6]: 15.6%
- PT [6]: 16.4 s
- Plat [6]: 121.5 x10_4/uL
- RBC [6]: 622.8 x10_4/ul
- Ret [6]: 5.6%
- WBC [6]: 102.3 x10_2/uL
- APTT [7]: 22.1 s
- Bas [7]: 0%
- Eos [7]: 0.8%
- Fbg [7]: 318.8 mg/dL
- Hb [7]: 14 g/dL
- Ht [7]: 40.7%
- Lym [7]: 85.2%
- MCH [7]: 20.1 pg
- MCHC [7]: 34.5%
- MCV [7]: 58.4 fL
- Mono [7]: 2%
- Neu [7]: 11.6%
- PT [7]: 16.5 s
- Plat [7]: 110.2 x10_4/uL
- RBC [7]: 697 x10_4/ul
- Ret [7]: 4.3%
- WBC [7]: 101.8 x10_2/uL
- APTT [8]: 23.7 s
- Bas [8]: 0%
- Eos [8]: 1%
- Fbg [8]: 306 mg/dL
- Hb [8]: 15 g/dL
- Ht [8]: 42.4%
- Lym [8]: 84.4%
- MCH [8]: 19.4 pg
- MCHC [8]: 35.4%
- MCV [8]: 54.8 fL
- Mono [8]: 2.4%
- Neu [8]: 11%
- PT [8]: 16.7 s
- Plat [8]: 87.5 x10_4/uL
- RBC [8]: 773 x10_4/ul
- Ret [8]: 2%
- WBC [8]: 108.5 x10_2/uL
- A/G [6]: 1.1
- ALP [6]: 1430.4 IU/L
- ALT [6]: 38 IU/L
- AST [6]: 65.8 IU/L
- BUN [6]: 17.4 mg/dL
- CRE [6]: 0.2 mg/dL
- Ca [6]: 10.8 mg/dL
- Cl [6]: 107.4 meq/L
- DBIL [6]: 0 mg/dL
- GLC [6]: 177.8 mg/dL
- IP [6]: 7.1 mg/dL
- K [6]: 4.1 meq/L
- LDH [6]: 232.4 IU/L
- Na [6]: 142 meq/L
- PL [6]: 171.8 mg/dL
- RALB [6]: 3 g/dL
- TBIL [6]: 0 mg/dL
- TC [6]: 90.8 mg/dL
- TG [6]: 149 mg/dL
- TP [6]: 5.9 g/dL
- gamma-GTP [6]: 1 IU/L
- A/G [7]: 1.1
- ALP [7]: 1277.4 IU/L
- ALT [7]: 40.6 IU/L
- AST [7]: 62.6 IU/L
- BUN [7]: 17.6 mg/dL
- CRE [7]: 0.2 mg/dL
- Ca [7]: 10.6 mg/dL
- Cl [7]: 106.6 meq/L
- DBIL [7]: 0 mg/dL
- GLC [7]: 176.8 mg/dL
- IP [7]: 6.1 mg/dL
- K [7]: 4.1 meq/L
- LDH [7]: 197.6 IU/L
- Na [7]: 142.2 meq/L
- PL [7]: 170.2 mg/dL
- RALB [7]: 3.2 g/dL
- TBIL [7]: 0.01 mg/dL
- TC [7]: 96 mg/dL
- TG [7]: 134 mg/dL
- TP [7]: 6.1 g/dL
- gamma-GTP [7]: 2 IU/L
- A/G [8]: 1.1
- ALP [8]: 1026.6 IU/L
- ALT [8]: 29.8 IU/L
- AST [8]: 51 IU/L
- BUN [8]: 19.2 mg/dL
- CRE [8]: 0.2 mg/dL
- Ca [8]: 10.7 mg/dL
- Cl [8]: 106.4 meq/L
- DBIL [8]: 0.002 mg/dL
- GLC [8]: 184.8 mg/dL
- IP [8]: 5.9 mg/dL
- K [8]: 4.1 meq/L
- LDH [8]: 143.8 IU/L
- Na [8]: 142.6 meq/L
- PL [8]: 160 mg/dL
- RALB [8]: 3.5 g/dL
- TBIL [8]: 0.004 mg/dL
- TC [8]: 81.2 mg/dL
- TG [8]: 165.4 mg/dL
- TP [8]: 6.6 g/dL
- gamma-GTP [8]: 1.8 IU/L

From ChEMBL document CHEMBL3885861, “Open TG-GATES”
